# Measurements reported in patent US6914045B2, “Glycopeptide antibiotics” (Wyeth Holdings Corporation, priority 2001, dated 2005).
# Key:
# Experiment in all cases: in vitro antibacterial evaluation, MIC by broth dilution
# Type in all cases: cell-based
# Enterococcus sp. = details: broth dilution, 18 hours at 35° C.
# Method in brief: (§1)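 Broth dilution per NCCLS standard M7-A2 in Muller-Hinton II […], with an inoculum of 5×10^5 CFU/mL and antibiotic spanning 64-0.06 μg/mL. The MIC is the lowest concentration that inhibits growth of the organism.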
# Escherichia coli = tested on: Escherichia coli
# Method in brief: as §1
# Staphylococcus sp. = details: broth dilution, 18 hours at 35° C.; for MIC Staphylococcus aureus (GC 1131): strain GC 1131
# Method in brief: as §1
# Streptococcus sp. = details: broth dilution, 18 hours at 35° C.
# Method in brief: as §1
compound,measurement,setting,value
CCOc1cc(C2OCC3OC(OC4C(CO)OC(Oc5ccc(CC6NC(=O)C(C(C)c7ccccc7)NC(=O)CNC(=O)C(CO)NC(=O)C(C(O)C7CNC(=N)N7C7OC(CO)C(O)C(O)C7O)NC(=O)C(C(O)C7CNC(=N)N7)NC6=O)cc5)C(O)C4O)C(O)C(O)C3O2)ccc1OC (stereo not drawn) [Example 152],MIC Enterococcus avium (GC 4558),Enterococcus sp.; Enterococcus avium (GC 4558),32 µg/mL
same,MIC Enterococcus faecalis (ATCC 29212),Enterococcus sp.; Enterococcus faecalis (ATCC 29212),32 µg/mL
same,MIC Enterococcus faecalis (GC 2242),Enterococcus sp.; Enterococcus faecalis (GC 2242),32 µg/mL
same,MIC Enterococcus faecalis (GC 2691),Enterococcus sp.; Enterococcus faecalis (GC 2691),32 µg/mL
same,MIC Enterococcus faecalis (GC 3059),Enterococcus sp.; Enterococcus faecalis (GC 3059),32 µg/mL
same,MIC Enterococcus faecalis (GC 4552),Enterococcus sp.; Enterococcus faecalis (GC 4552),32 µg/mL
same,MIC Enterococcus faecalis (GC 4553),Enterococcus sp.; Enterococcus faecalis (GC 4553),64 µg/mL
same,MIC Enterococcus faecalis (GC 4554),Enterococcus sp.; Enterococcus faecalis (GC 4554),32 µg/mL
same,MIC Enterococcus faecalis (GC 6189),Enterococcus sp.; Enterococcus faecalis (GC 6189),32 µg/mL
same,MIC Enterococcus faecium (GC 2243),Enterococcus sp.; Enterococcus faecium (GC 2243),32 µg/mL
same,MIC Enterococcus faecium (GC 4556),Enterococcus sp.; Enterococcus faecium (GC 4556),32 µg/mL
same,MIC Enterococcus faecium (GC 4557),Enterococcus sp.; Enterococcus faecium (GC 4557),16 µg/mL
same,MIC Enterococcus faecalis (ATCC 29212),Enterococcus sp.; strain ATCC 29212,32 µg/mL
same,MIC Enterococcus faecalis (GC 2242),Enterococcus sp.; strain GC 2242,32 µg/mL
same,MIC Enterococcus faecium (GC 2243),Enterococcus sp.; strain GC 2243,32 µg/mL
same,MIC Enterococcus faecalis (GC 2691),Enterococcus sp.; strain GC 2691,32 µg/mL
same,MIC Enterococcus faecalis (GC 3059),Enterococcus sp.; strain GC 3059,32 µg/mL
same,MIC Enterococcus faecalis (GC 4552),Enterococcus sp.; strain GC 4552,32 µg/mL
same,MIC Enterococcus faecalis (GC 4553),Enterococcus sp.; strain GC 4553,64 µg/mL
same,MIC Enterococcus faecalis (GC 4554),Enterococcus sp.; strain GC 4554,32 µg/mL
same,MIC Enterococcus faecium (GC 4556),Enterococcus sp.; strain GC 4556,32 µg/mL
same,MIC Enterococcus faecium (GC 4557),Enterococcus sp.; strain GC 4557,16 µg/mL
same,MIC Enterococcus avium (GC 4558),Enterococcus sp.; strain GC 4558,32 µg/mL
same,MIC Enterococcus faecalis (GC 6189),Enterococcus sp.; strain GC 6189,32 µg/mL
same,MIC Escherichia coli (ATCC 25922),"Escherichia coli; strain ATCC 25922, 18 hours at 35° C.",>64 µg/mL
same,MIC Escherichia coli (GC 4559),"Escherichia coli; strain GC 4559, 18 hours at 35° C.",>64 µg/mL
same,MIC Escherichia coli (GC 4560),"Escherichia coli; strain GC 4560, 18 hours at 35° C.",8 µg/mL
same,MIC Staphylococcus aureus (GC 1131),Staphylococcus sp.; inoculum 5×10^5 CFU/mL,16 µg/mL
same,MIC Staphylococcus aureus (ATCC 29213),Staphylococcus sp.; strain ATCC 29213,16 µg/mL
same,MIC Staphylococcus aureus (GC 1131),Staphylococcus sp.,16 µg/mL
same,MIC Staphylococcus aureus (GC 3051),Staphylococcus sp.; strain GC 3051,16 µg/mL
same,MIC Staphylococcus aureus (GC 3053),Staphylococcus sp.; strain GC 3053,32 µg/mL
same,MIC Staphylococcus aureus (GC 4541),Staphylococcus sp.; strain GC 4541,16 µg/mL
same,MIC Staphylococcus aureus (GC 4542),Staphylococcus sp.; strain GC 4542,16 µg/mL
same,MIC Staphylococcus aureus-SMITH (GC 4543),Staphylococcus sp.; strain GC 4543,8 µg/mL
same,MIC Staphylococcus aureus (GC 4544),Staphylococcus sp.; strain GC 4544,16 µg/mL
same,MIC Staphylococcus aureus (GC 4545),Staphylococcus sp.; strain GC 4545,8 µg/mL
same,MIC Staphylococcus haemolyticus (GC 4546),Staphylococcus sp.; strain GC 4546,8 µg/mL
same,MIC Coagulase Negative Staphylococcus (GC 4547),Staphylococcus sp.; strain GC 4547,8 µg/mL
same,MIC Coagulase Negative Staphylococcus (GC 4548),Staphylococcus sp.; strain GC 4548,8 µg/mL
same,MIC Coagulase Negative Staphylococcus (GC 4549),Staphylococcus sp.; strain GC 4549,8 µg/mL
same,MIC Coagulase Negative Staphylococcus (GC 4551),Staphylococcus sp.; strain GC 4551,16 µg/mL
same,MIC Coagulase Negative Staphylococcus (GC 6257),Staphylococcus sp.; strain GC 6257,8 µg/mL
same,MIC Staphylococcus aureus-SMITH (GC 4543),Staphylococcus sp.; strain SMITH GC 4543,8 µg/mL
same,MIC Streptococcus agalactiae (GC 4564),Streptococcus sp.; Streptococcus agalactiae (GC 4564),8 µg/mL
same,MIC Streptococcus pneumoniae (ATCC 6301),Streptococcus sp.; Streptococcus pneumoniae (ATCC 6301),2 µg/mL
same,MIC Streptococcus pneumoniae (GC 1894),Streptococcus sp.; Streptococcus pneumoniae (GC 1894),0.5 µg/mL
same,MIC Streptococcus pneumoniae (GC 4565),Streptococcus sp.; Streptococcus pneumoniae (GC 4565),2 µg/mL
same,MIC Streptococcus pyogenes (GC 4563),Streptococcus sp.; Streptococcus pyogenes (GC 4563),4 µg/mL
same,MIC Streptococcus pneumoniae (ATCC 6301),Streptococcus sp.; strain ATCC 6301,2 µg/mL
same,MIC Streptococcus pneumoniae (GC 1894),Streptococcus sp.; strain GC 1894,0.5 µg/mL
same,MIC Streptococcus pyogenes (GC 4563),Streptococcus sp.; strain GC 4563,4 µg/mL
same,MIC Streptococcus agalactiae (GC 4564),Streptococcus sp.; strain GC 4564,8 µg/mL
same,MIC Streptococcus pneumoniae (GC 4565),Streptococcus sp.; strain GC 4565,2 µg/mL
